Measured values published in patent US4225595A, “Piperazine phosphates and phosphonate insecticides” (priority 1979, dated 1980).

Tests used:
[1] = test system: German Cockroach [Blatella germanica (Linne)]; test: German Cockroach (GR) direct spray, mortality 7 days later; type: in vivo; settings: one-month-old nymphs, initial 0.1%
Method: (§1) Screening was initiated at a maximal concentration level believed to be injurious to the insect population. The initial level should not be understood as representing a maximum at which a viable test for insecticidal activity can be conducted.
(§2) Mobile insects, such as houseflies, German cockroaches, Lygus bugs, were contained for treatment in circular cardboard cages covered with cellophane on the bottom and tulle netting on the top.
(§3) The insecticidal properties were tested in the same manner as for black beam aphids with the substitution of the nasturtiums by radish plants, Rhaphanus sativus. German Cockroach [Blatella germanica (Linne)], (GR)--Direct Spray
(§4) Test compounds were diluted in a 50--50 acetonewater solution. Two cubic centimeters (cc) of the compound solutions were sprayed through a DeVilbiss type EGA hand spray gun into cages each containing 10 one-month-old German cockroach nymphs.
The percent mortality was recorded 7 days later. Test concentrations ranged from 0.1% down to that at which approximately 50% mortality occurs.
(§5) A less than 50% mortality rate at the initial concentration is indicated by a "greater than" sign (>). An approximately 50% mortality rate is indicated by the initial concentration rate. Other results are the dilutions at which an LD50 was achieved.

[2] = test system: Tobacco Budworm [Heliothis virescens (Fabricius)]; settings: leaf dip, Romaine lettuce leaves
Method: Mortality of the larvae was recorded 48 hours later. A piece of synthetic media was added to the dishes containing surviving larvae. […] Test concentrations ranged from 0.05% down to that at which approximately 50% mortality occurs.

[3] = test system: Two-Spotted Mite [Tetranychus urticae (Koch)]; test: Two-Spotted Mite (2SM) plant dip assay, mortality seven days later; type: in vivo
Source text: (§6) Screening was initiated at a maximal concentration level believed to be injurious to the insect population. The initial level should not be understood as representing a maximum at which a viable test for insecticidal activity can be conducted. […]
Pinto bean plants (Phaseolus vulgaris) approximately 10 cm high were transplanted into sandy loam soil in three-inch clay pots. The plants were thoroughly infested with two-spotted mites of mixed ages and sexes. Twenty-four hours after infestation the plants were inverted and dipped for 2-3 seconds in 50--50 acetone-water solutions of the test compounds.
Mortality ratings for both adult mites and nymphs hatching after treatment were taken seven days later. Test concentrations ranged from 0.05% down to that at which 50% mortality occurs.
as §5

[4] = test system: Green Peach Aphid [Myzus persicae (Sulzer)]; test: Green Peach Aphid (GPA) plant spray assay; type: in vivo; settings: spray on infested radish plants, three days
Source text: as §1
(§7) Nasturtium plants, Tropaeolum sp., approximately five centimeters (cm) high were transplanted into sandy loam soil in three-inch clay pots. Each pot was infested with 25-50 black bean aphids of mixed ages. Twenty-four hours later the pots were sprayed to the point of run-off with 50--50 acetone-water solutions of the test compounds.
(§8) Mortality rates were recorded after the infested plants had been held in the greenhouse for three days. Test concentrations ranged from 0.05% down to that at which 50% mortality occurs. Green Peach Aphid [Myzus persicae (Sulzer)], (GPA)
as §3, §5

[5] = test system: Saltmarsh Caterpillar [Estigmene acrea (Drury)]; test: Saltmarsh Caterpillar (SMC) leaf dip assay; type: in vivo; settings: curly dock leaves, second-instar larvae, 48 hours + 5 days
Method: as §1
(§9) The species was treated in the same manner as the German cockroach. The cages contained one string beam pod and 10 adult Lygus bugs. The percent mortality was recorded 48 hours later. Test concentrations ranged from 0.05% down to that at which approximately 50% mortality occurs. Saltmarsh Caterpillar [Estigmene acrea (Drury)], (SMC)--Leaf Dip Assay
(§10) Test compounds were diluted in a 50--50 acetone-water solution. Approximately 1×1.5 inch sections of curly dock (Rumex crispus) leaves were immersed in the test solution for 2-3 seconds. After drying on a wire screen, the leaves were placed in petri dishes containing a moistened piece of filter paper. Each dish was infested with 5 secondinstar saltmarsh larvae.
(§11) Mortality of the larvae was recorded 48 hours later. A piece of synthetic media was added to the dishes containing surviving larvae. The larvae were then observed for 5 additional days for delayed effects of the test compounds. Test concentrations ranged from 0.05% down to that at which approximately 50% mortality occurs. Cabbage Looper [Trichoplusia ni (Hubner)], (CL)
as §5

[6] = test system: Lygus Bug [Lygus hesperus (Knight)]; test: Lygus Bug (LB) direct spray assay, mortality 48 hours later; type: in vivo; settings: adults, initial 0.05%
Method: as §1, §2, §4
Lygus Bug [Lygus hesperus (Knight)], (LB)--Direct Spray Assay
as §9, §5

[7] = test system: Housefly [Musca domestica (Linn.)]; settings: topical, 48 h
Method: Housefly [Musca domestica (Linn.)], (HF)--Contact Residue Assay
Test compounds were diluted in acetone and aliquots were pipetted onto the bottom of 55×15 millimeter (mm) aluminum dishes. One ml of acetone containing 0.02% peanut oil was added to each dish to insure even spreading. After all solvents had evaporated the dishes were placed in cages each containing 25 one to two day old female houseflies. Each cage contained a sugar-water cotton plug for sustanence of the flies.
Mortality rates were recorded after 48 hours. Test levels ranged from 10 μ/25 .female. houseflies down to that at which approximately 50% mortality occurs.

[8] = test system: Black Bean Aphid [Aphis fabae (Scop.)]; test: Black Bean Aphid (BBA) plant spray assay, mortality after three days; type: in vivo; settings: spray on infested nasturtium plants
Source text: as §6, §7, §8, §5

[9] = test system: Southern House Mosquito Larvae (Culex pipiens quinquefasciatus); test: Southern House Mosquito larvae (M) assay, mortality 48 hours after treatment; type: in vivo; settings: third-instar larvae in aqueous solution, initial 1 ppm, read-out: LD50 M
Method: as §1
Tobacco budworms were tested in the same manner as the cabbage looper. Romaine lettuce (Latuca sativa) leaves provided the substrate. Southern House Mosquito Larvae (Culex pipiens quinquefasciatus), (M)
Ten third-instar larvae were placed in a six ounce wax paper cup containing 100 ml of an aqueous solution of the test compounds at a concentration of 1 ppm. The treated larvae were stored at 70° F. (21.5° C.) and mortality was recorded 48 hours after treatment. Two-Spotted Mite [Tetranychus urticae (Koch)], (2SM)
as §5

[10] = test system: Cabbage Looper [Trichoplusia ni (Hubner)]; test: Cabbage Looper (CL) leaf dip assay; type: in vivo; settings: squash cotyledons, initial 0.1%
Method: as §1, §10, §11
The effectiveness of the compounds was tested in the same manner as for the saltmarsh caterpillar with two exceptions. Cotyledons of hyzini squash (Calabacita abobrinha, were substituted for curly dock leaves and the initial test concentration was 0.1%. Tobacco Budworm [Heliothis virescens (Fabricius)], (TBW)
as §5

For `CCOC(=O)N1CCN(C(=O)CSP(=S)(OCC)OCC)C(C)C1` (centres unmarked) [Compound 13, 1-N-ethoxycarbo-4-N'-O,O-diethylphosphorodithioylacetyl-3-methyl piperazine], the “LD50 GR” value [1] was “> .1%”, the “LD50 TBW” value [2] was “> .05%” and the “LD50 2SM Adults” value ([3]; adult mites) was “.003%”. The “LD50 2SM Eggs” value ([3]; eggs (nymphs hatching after treatment)) was “.006%”, the “LD50 GPA” value [4] was “.008%” and the “LD50 SMC” value [5] was “> .05%”. The “LD50 LB” value [6] was “> .05%”, the “LD50 HF” value [7] was > 10 μg/25 and the “LD50 BBA” value [8] was “.003%”. For the same molecule, the LC50 [9] was > 1 µg/mL and the “LD50 CL” value [10] was “> .1%”.
